# Assay results reported in article PMC5218480 (PLoS ONE, 2017).
# Tested on: MV-4-11 cells
# Test: Gene expression microarray analysis (Affymetrix PrimeView) and GSEA
# Type: cell-based, human
# Parameters: RFU PODN (11730768_x_at) / Fold change /veh PODN (11730768_x_at) / RFU LINC00158 (11744669_a_at) / Fold change /veh LINC00158 (11744669_a_at) / RFU DUSP10 (11751237_a_at) / Fold change /veh DUSP10 (11751237_a_at) / RFU ID3 (11757404_x_at) / Fold change /veh ID3 (11757404_x_at) / RFU PLEKHG5 (11737974_s_at) / Fold change /veh PLEKHG5 (11737974_s_at) / RFU LRRC4B (11730491_at) / Fold change /veh LRRC4B (11730491_at) / RFU GIMAP4 (11747438_a_at) / Fold change /veh GIMAP4 (11747438_a_at) / RFU KRT8 (11758183_x_at) / Fold change /veh KRT8 (11758183_x_at) / RFU CNN1 (11734310_a_at) / Fold change /veh CNN1 (11734310_a_at) / RFU VPS37D (11726825_at) / Fold change /veh VPS37D (11726825_at) / RFU C10orf10 (11716522_x_at) / Fold change /veh C10orf10 (11716522_x_at) / RFU KIR2DL2 /// KIR2DL4 /// KIR2DL5A /// KIR2DL5B /// KIR2DS1 /// KIR2DS2 /// KIR2DS3 /// KIR2DS4 /// KIR3DL3 /// KIR3DL3 /// KIR3DS1 (11738374_at) / Fold change /veh KIR2DL2 /// KIR2DL4 /// KIR2DL5A /// KIR2DL5B /// KIR2DS1 /// KIR2DS2 /// KIR2DS3 /// KIR2DS4 /// KIR3DL3 /// KIR3DL3 /// KIR3DS1 (11738374_at) / RFU C1QL1 (11718748_at) / Fold change /veh C1QL1 (11718748_at) / RFU TMPRSS4 (11747572_a_at) / Fold change /veh TMPRSS4 (11747572_a_at) / RFU HAMP (11756126_x_at) / Fold change /veh HAMP (11756126_x_at) / RFU RNFT2 (11725882_a_at) / Fold change /veh RNFT2 (11725882_a_at) / RFU NR4A2 (11747474_a_at) / Fold change /veh NR4A2 (11747474_a_at) / RFU ABCC12 (11746883_a_at) / Fold change /veh ABCC12 (11746883_a_at) / RFU TMEM136 (11760407_x_at) / Fold change /veh TMEM136 (11760407_x_at) / RFU CLDN22 /// WWC2 (11732394_at) / Fold change /veh CLDN22 /// WWC2 (11732394_at) / RFU HLA-DPB1 (11760878_x_at) / Fold change /veh HLA-DPB1 (11760878_x_at) / RFU SPINT1 (11716480_a_at) / Fold change /veh SPINT1 (11716480_a_at) / RFU GAP43 (11754022_s_at) / Fold change /veh GAP43 (11754022_s_at) / RFU A4GNT (11735810_at) / Fold change /veh A4GNT (11735810_at) / RFU PRB3 (11715151_x_at) / Fold change /veh PRB3 (11715151_x_at) / RFU TUBB4B (11761932_at) / Fold change /veh TUBB4B (11761932_at) / RFU CAPN14 (11732068_a_at) / Fold change /veh CAPN14 (11732068_a_at) / RFU TMCC2 (11721928_a_at) / Fold change /veh TMCC2 (11721928_a_at) / RFU IRGQ (11745062_a_at) / Fold change /veh IRGQ (11745062_a_at) / RFU FAM174B (11720279_a_at) / Fold change /veh FAM174B (11720279_a_at) / RFU TMPRSS4 (11748680_a_at) / Fold change /veh TMPRSS4 (11748680_a_at) / RFU FAM212B (11763350_a_at) / Fold change /veh FAM212B (11763350_a_at) / RFU PLEKHG5 (11743358_a_at) / Fold change /veh PLEKHG5 (11743358_a_at) / RFU ZSCAN30 (11745921_a_at) / Fold change /veh ZSCAN30 (11745921_a_at) / RFU CMKLR1 (11741424_a_at) / Fold change /veh CMKLR1 (11741424_a_at) / RFU LOC101060620 /// MAPK8IP1 (11723275_at) / Fold change /veh LOC101060620 /// MAPK8IP1 (11723275_at) / RFU SPTSSB (11747773_x_at) / Fold change /veh SPTSSB (11747773_x_at) / RFU PRSS12 (11739890_at) / Fold change /veh PRSS12 (11739890_at) / RFU BIN1 (11741810_x_at) / Fold change /veh BIN1 (11741810_x_at) / RFU WNT11 (11732464_a_at) / Fold change /veh WNT11 (11732464_a_at) / RFU C10orf10 (11716521_a_at) / Fold change /veh C10orf10 (11716521_a_at) / RFU C5orf56 (11738089_at) / Fold change /veh C5orf56 (11738089_at) / RFU CYB561 (11721691_x_at) / Fold change /veh CYB561 (11721691_x_at) / RFU ANKRD19P (11752326_a_at) / Fold change /veh ANKRD19P (11752326_a_at) / RFU OR2T12 /// OR2T33 /// OR2T8 (11738714_s_at) / Fold change /veh OR2T12 /// OR2T33 /// OR2T8 (11738714_s_at) / RFU VCAN (11748164_a_at) / Fold change /veh VCAN (11748164_a_at) / RFU JSRP1 (11732532_at) / Fold change /veh JSRP1 (11732532_at) / RFU KRTAP10-11 (11738290_x_at) / Fold change /veh KRTAP10-11 (11738290_x_at) / RFU MYO3A (11730013_a_at) / Fold change /veh MYO3A (11730013_a_at) / RFU EBF3 (11725865_a_at) / Fold change /veh EBF3 (11725865_a_at) / RFU CAMK2N1 (11719241_x_at) / Fold change /veh CAMK2N1 (11719241_x_at) / RFU C5orf56 (11738088_a_at) / Fold change /veh C5orf56 (11738088_a_at) / RFU OLFML3 (11715873_a_at) / Fold change /veh OLFML3 (11715873_a_at) / RFU LOC100653217 /// NTM (11731650_a_at) / Fold change /veh LOC100653217 /// NTM (11731650_a_at) / RFU MAPK11 (11762145_a_at) / Fold change /veh MAPK11 (11762145_a_at) / RFU FIZ1 (11724087_x_at) / Fold change /veh FIZ1 (11724087_x_at) / RFU OASL (11726364_x_at) / Fold change /veh OASL (11726364_x_at) / RFU SOX15 (11748057_x_at) / Fold change /veh SOX15 (11748057_x_at) / RFU CD79A (11719716_a_at) / Fold change /veh CD79A (11719716_a_at) / RFU HIST1H1D (11736915_at) / Fold change /veh HIST1H1D (11736915_at) / RFU CASKIN2 (11723855_a_at) / Fold change /veh CASKIN2 (11723855_a_at) / RFU LOC730098 (11760151_x_at) / Fold change /veh LOC730098 (11760151_x_at) / RFU OR4N2 (11742367_at) / Fold change /veh OR4N2 (11742367_at) / RFU PRRT2 (11749266_a_at) / Fold change /veh PRRT2 (11749266_a_at) / RFU SNX32 (11753110_a_at) / Fold change /veh SNX32 (11753110_a_at) / RFU CDHR5 (11726645_a_at) / Fold change /veh CDHR5 (11726645_a_at) / RFU RCAN1 (11760418_a_at) / Fold change /veh RCAN1 (11760418_a_at) / RFU FAM167A (11723789_a_at) / Fold change /veh FAM167A (11723789_a_at) / RFU FAM26E (11764081_at) / Fold change /veh FAM26E (11764081_at) / RFU ISYNA1 (11749810_s_at) / Fold change /veh ISYNA1 (11749810_s_at) / RFU ACY1 (11761880_at) / Fold change /veh ACY1 (11761880_at) / RFU 11764098_at / Fold change /veh 11764098_at / RFU SAMD14 (11745864_x_at) / Fold change /veh SAMD14 (11745864_x_at) / RFU NPB (11741838_a_at) / Fold change /veh NPB (11741838_a_at) / RFU TMPRSS6 (11731388_a_at) / Fold change /veh TMPRSS6 (11731388_a_at) / RFU KRTAP10-2 (11738614_at) / Fold change /veh KRTAP10-2 (11738614_at) / RFU ARHGAP8 /// PRR5-ARHGAP8 (11727945_x_at) / Fold change /veh ARHGAP8 /// PRR5-ARHGAP8 (11727945_x_at) / RFU KRTAP5-7 /// NADSYN1 (11734609_at) / Fold change /veh KRTAP5-7 /// NADSYN1 (11734609_at) / RFU RASL12 (11751679_a_at) / Fold change /veh RASL12 (11751679_a_at) / RFU CDKN2B (11736163_a_at) / Fold change /veh CDKN2B (11736163_a_at) / RFU PRF1 (11729649_at) / Fold change /veh PRF1 (11729649_at) / RFU, ZNF638 /// ZNF638-IT1 / Fold change vs veh, ZNF638 /// ZNF638-IT1 / RFU, PANK3 / Fold change vs veh, PANK3 / RFU, SH3YL1 / Fold change vs veh, SH3YL1 / RFU, ZEB2 / Fold change vs veh, ZEB2 / RFU, NRIP1 / Fold change vs veh, NRIP1 / RFU, PTTG1IP / Fold change vs veh, PTTG1IP / RFU, CAPN2 / Fold change vs veh, CAPN2 / RFU, MED14 / Fold change vs veh, MED14 / RFU, SNORA58 / Fold change vs veh, SNORA58 / RFU, C1orf63 / Fold change vs veh, C1orf63 / RFU, LRRFIP1 / Fold change vs veh, LRRFIP1 / RFU, NDUFAF7 / Fold change vs veh, NDUFAF7 / RFU, SLC12A2 / Fold change vs veh, SLC12A2 / RFU, IBTK / Fold change vs veh, IBTK / RFU, ESF1 / Fold change vs veh, ESF1 / Fold change vs veh, TMEM50B / RFU, TAOK1 / Fold change vs veh, TAOK1 / RFU, ACBD3 / Fold change vs veh, ACBD3 / RFU, TMA16 / Fold change vs veh, TMA16 / RFU, RWDD3 / Fold change vs veh, RWDD3 / RFU, BCAT1 / Fold change vs veh, BCAT1 / RFU, EDEM3 / Fold change vs veh, EDEM3 / RFU, TMEM33 / Fold change vs veh, TMEM33 / RFU, WDR75 / Fold change vs veh, WDR75 / RFU, AHCTF1 / Fold change vs veh, AHCTF1 / RFU, TFRC / Fold change vs veh, TFRC / RFU, ZDHHC17 / Fold change vs veh, ZDHHC17 / RFU, NOM1 / Fold change vs veh, NOM1 / RFU, ARL8B / Fold change vs veh, ARL8B / RFU, ZBTB11 / Fold change vs veh, ZBTB11 / RFU, TAMM41 / Fold change vs veh, TAMM41 / RFU, KIAA1704 /// LOC100996395 / Fold change vs veh, KIAA1704 /// LOC100996395 / RFU, ING1 / Fold change vs veh, ING1 / RFU, TRMT61B / Fold change vs veh, TRMT61B / RFU, FUBP3 / Fold change vs veh, FUBP3 / RFU, TP53 / Fold change vs veh, TP53 / RFU, TNKS2 / Fold change vs veh, TNKS2 / RFU, ZFP14 / Fold change vs veh, ZFP14 / RFU, ACTR2 / Fold change vs veh, ACTR2 / RFU, PPP3R1 / Fold change vs veh, PPP3R1 / RFU, PIK3R1 / Fold change vs veh, PIK3R1 / RFU, HNRNPA1 / Fold change vs veh, HNRNPA1 / RFU, RNF170 / Fold change vs veh, RNF170 / RFU, ZNF28 / Fold change vs veh, ZNF28 / RFU, RNGTT / Fold change vs veh, RNGTT / RFU, OGT / Fold change vs veh, OGT / RFU, BRD1 / Fold change vs veh, BRD1 / RFU, MARS / Fold change vs veh, MARS / RFU, ZNF655 / Fold change vs veh, ZNF655 / RFU, FAHD1 / Fold change vs veh, FAHD1 / RFU, BDP1 / Fold change vs veh, BDP1 / RFU, LRRCC1 / Fold change vs veh, LRRCC1 / RFU, ARID1A / Fold change vs veh, ARID1A / RFU, ZNF146 / Fold change vs veh, ZNF146 / RFU, ZNF330 / Fold change vs veh, ZNF330 / RFU, GPN3 / Fold change vs veh, GPN3 / RFU, C9orf123 / Fold change vs veh, C9orf123 / RFU, N4BP2L2 / Fold change vs veh, N4BP2L2 / RFU, ARFIP1 / Fold change vs veh, ARFIP1 / RFU, FAM179B / Fold change vs veh, FAM179B / RFU, BCL10 / Fold change vs veh, BCL10 / RFU, UHRF1BP1L / Fold change vs veh, UHRF1BP1L / RFU, BET1 / Fold change vs veh, BET1 / RFU, CNOT2 / Fold change vs veh, CNOT2 / RFU, ZNF268 / Fold change vs veh, ZNF268 / Fold change vs veh, ZNF507 / RFU, DGCR2 / Fold change vs veh, DGCR2 / RFU, WDSUB1 / Fold change vs veh, WDSUB1 / Fold change vs veh, HSP90B1 /// MIR3652 / RFU, ADSS / Fold change vs veh, ADSS / RFU, GK / Fold change vs veh, GK / RFU, ZNF148 / Fold change vs veh, ZNF148 / RFU, TAF9 / Fold change vs veh, TAF9 / RFU, SLC1A5 / Fold change vs veh, SLC1A5 / RFU, SLMO2 / Fold change vs veh, SLMO2 / RFU, ABCC4 / Fold change vs veh, ABCC4 / RFU, LOC101060439 /// RAP1B / Fold change vs veh, LOC101060439 /// RAP1B / RFU, RFX7 / Fold change vs veh, RFX7 / RFU, GTPBP10 / Fold change vs veh, GTPBP10 / RFU, CNEP1R1 / Fold change vs veh, CNEP1R1 / RFU, BIVM-ERCC5 /// ERCC5 / Fold change vs veh, BIVM-ERCC5 /// ERCC5 / RFU, ILF3 / Fold change vs veh, ILF3 / RFU 11762660_at / Fold change /veh 11762660_at / RFU VCAN (11757783_s_at) / Fold change /veh VCAN (11757783_s_at) / RFU DDX43 (11728927_at) / Fold change /veh DDX43 (11728927_at) / RFU KRT8 (11758188_x_at) / Fold change /veh KRT8 (11758188_x_at) / RFU NKD1 (11759106_at) / Fold change /veh NKD1 (11759106_at) / RFU SRD5A1 (11742802_a_at) / Fold change /veh SRD5A1 (11742802_a_at) / RFU TPSAB1 /// TPSB2 (11721975_s_at) / Fold change /veh TPSAB1 /// TPSB2 (11721975_s_at) / RFU GSTM3 (11746129_a_at) / Fold change /veh GSTM3 (11746129_a_at) / RFU IL23R (11737362_x_at) / Fold change /veh IL23R (11737362_x_at) / RFU TMEM51 (11727254_a_at) / Fold change /veh TMEM51 (11727254_a_at) / RFU PIWIL2 (11732686_x_at) / Fold change /veh PIWIL2 (11732686_x_at) / RFU ORM1 (11744905_x_at) / Fold change /veh ORM1 (11744905_x_at) / RFU CCDC152 (11743942_at) / Fold change /veh CCDC152 (11743942_at) / RFU ECM1 (11717891_a_at) / Fold change /veh ECM1 (11717891_a_at) / RFU IL23R (11748794_a_at) / Fold change /veh IL23R (11748794_a_at) / RFU TNFAIP8L3 (11732012_x_at) / Fold change /veh TNFAIP8L3 (11732012_x_at) / RFU MBOAT4 (11741988_at) / Fold change /veh MBOAT4 (11741988_at) / RFU 11764193_at / Fold change /veh 11764193_at / RFU TMEM53 (11763286_at) / Fold change /veh TMEM53 (11763286_at) / RFU MAGEB2 (11727129_at) / Fold change /veh MAGEB2 (11727129_at) / RFU TMEM200A (11744735_a_at) / Fold change /veh TMEM200A (11744735_a_at) / RFU CCDC152 (11751479_a_at) / Fold change /veh CCDC152 (11751479_a_at) / RFU FAM211A (11726209_a_at) / Fold change /veh FAM211A (11726209_a_at) / RFU RGS16 (11746705_a_at) / Fold change /veh RGS16 (11746705_a_at) / RFU VCAN (11755009_s_at) / Fold change /veh VCAN (11755009_s_at) / RFU RHOB (11743442_s_at) / Fold change /veh RHOB (11743442_s_at) / RFU RGS16 (11720943_a_at) / Fold change /veh RGS16 (11720943_a_at) / RFU RGS16 (11720944_at) / Fold change /veh RGS16 (11720944_at) / RFU, VPS4B / Fold change vs veh, VPS4B / RFU, CREB1 / Fold change vs veh, CREB1 / RFU, DNAJC13 / Fold change vs veh, DNAJC13 / RFU, GNAQ / Fold change vs veh, GNAQ / RFU, CDK5R1 / Fold change vs veh, CDK5R1 / RFU, ZRANB3 / Fold change vs veh, ZRANB3 / RFU, CUL4A / Fold change vs veh, CUL4A / RFU, CCNY / Fold change vs veh, CCNY / RFU, UFL1 / Fold change vs veh, UFL1 / RFU, COG3 / Fold change vs veh, COG3 / RFU, DIAPH2 / Fold change vs veh, DIAPH2 / RFU, SKA2 / Fold change vs veh, SKA2 / RFU, AFF3 / Fold change vs veh, AFF3 / RFU, LMF1 / Fold change vs veh, LMF1 / RFU, IPO11 / Fold change vs veh, IPO11 / RFU, DFFB / Fold change vs veh, DFFB / RFU, FOXP1 / Fold change vs veh, FOXP1 / RFU, CARD8 / Fold change vs veh, CARD8 / RFU, STRN3 / Fold change vs veh, STRN3 / RFU, ADK / Fold change vs veh, ADK / RFU, RASSF2 / Fold change vs veh, RASSF2 / RFU, WIPF1 / Fold change vs veh, WIPF1 / RFU, LARP1B / Fold change vs veh, LARP1B / RFU, RASA1 / Fold change vs veh, RASA1 / RFU, RB1 / Fold change vs veh, RB1 / RFU, PPFIA1 / Fold change vs veh, PPFIA1 / RFU, MAT2A / Fold change vs veh, MAT2A / RFU, CCT5 / Fold change vs veh, CCT5 / RFU, WDR92 / Fold change vs veh, WDR92 / RFU, CUX1 / Fold change vs veh, CUX1 / RFU, TTC7A / Fold change vs veh, TTC7A / RFU, TMEM135 / Fold change vs veh, TMEM135 / RFU, DEPTOR / Fold change vs veh, DEPTOR / RFU, CPM / Fold change vs veh, CPM / RFU, DNAJB6 / Fold change vs veh, DNAJB6 / RFU, CACNA2D3 / Fold change vs veh, CACNA2D3 / RFU, DTX4 / Fold change vs veh, DTX4 / RFU, TFCP2 / Fold change vs veh, TFCP2 / RFU, GMCL1 /// GMCL1P1 / Fold change vs veh, GMCL1 /// GMCL1P1 / RFU, AEBP2 / Fold change vs veh, AEBP2 / RFU, SNHG1 /// SNORD22 /// SNORD25 /// SNORD26 /// SNORD27 /// SNORD28 /// SNORD29 /// SNORD31 / Fold change vs veh, SNHG1 /// SNORD22 /// SNORD25 /// SNORD26 /// SNORD27 /// SNORD28 /// SNORD29 /// SNORD31 / Fold change (Aza/veh), C12orf56 (ProbeSet 11735607_a_at) / Fold change (ACY-1035/veh), C12orf56 (ProbeSet 11735607_a_at) / Fold change (Aza/veh), FGFR1OP (ProbeSet 11751329_s_at) / Fold change (ACY-1035/veh), FGFR1OP (ProbeSet 11751329_s_at) / Fold change (Aza/veh), VPS36 (ProbeSet 11739960_a_at) / Fold change (ACY-1035/veh), VPS36 (ProbeSet 11739960_a_at) / RFU SYPL1 (11715823_x_at) / Fold change /veh SYPL1 (11715823_x_at) / RFU IGFBP7 (11715501_s_at) / Fold change /veh IGFBP7 (11715501_s_at) / RFU REEP3 (11722064_at) / Fold change /veh REEP3 (11722064_at) / RFU IGLL1 (11728026_x_at) / Fold change /veh IGLL1 (11728026_x_at): dose or concentration left out as unconfirmed
# Settings: MV-4-11 cells, 48 hours
smiles,measurement,value
Nc1ncn([C@@H]2O[C@H](CO)[C@@H](O)[C@H]2O)c(=O)n1 [azacitidine],Fold change /veh KIR2DL2 /// KIR2DL4 /// KIR2DL5A /// KIR2DL5B /// KIR2DS1 /// KIR2DS2 /// KIR2DS3 /// KIR2DS4 /// KIR3DL3 /// KIR3DL3 /// KIR3DS1 (11738374_at),0.92
